Values of other authors in patent publication US20150182483A1 (priority 2014, published 2015).

Legend:
[1] = prior art, Kalogeropoulou et al. 2009
[2] = humans
[3] = pH at which two predominant microspecies have net charge of zero
[4] = intravenous, subjects
[5] = test system: chemical diabetes induced by streptozotocin
[6] = D-lysine treatment with streptozotocin diabetes

Structure (SMILES) | Response (hypoglycemic effect) [1] | Proposed upper limit (LD 50 not firmly established) [2] | Isoelectric point (pI) [3] | Effect on blood ammonia [4] | Effect on blood glucose [4] | Blood glucose [5, 6] | Glycated lens proteins [5, 6] | Glycated serum proteins [5, 6] | HbA1 [5, 6] | Urinary d-lysine [5, 6] | Excretion ([5]; animal model) | Nephrotoxicity ([5]; animal model) | non-enzymatic glycation of hemoglobin, lens proteins and serum proteins ([5]; animal model of chemical diabetes induced by streptozotocin)
NCCCC[C@H](N)C(=O)O [L-lysine] | Lower blood glucose | 300-400 mg×kg^−1xd^−1 | approximately 9.7 | without significantly increasing blood ammonia | lowers blood glucose |  |  |  |  |  |  |  | 
NCCCC[C@@H](N)C(=O)O [D-lysine] |  |  |  |  |  | 25.1 mmol/L | 4.90% | 1.4% | 3.0% | 15.9 mmol/L | excreted in the urine | not nephrotoxic | decrease
